Test results published in US20250171498A1, “ANTIBIOTIC COMPOUNDS, FORMULATIONS AND METHODS OF USE” (UNIVERSITEIT LEIDEN, priority 2022, published 2025).
Values after ≈ are worked out from the molar mass of the structure shown. Where a SMILES comes first, the peptide text is derived from it. Bridges are numbered along the chain shown (N, C = ends). [ ]: non-standard residue; d: D form. The star is where a group is joined. Phenylthio(4-OPh) = c1ccc(Oc2ccc(S*)cc2)cc1; S(2-cyclohexylethyl) = C1CCC(CCS*)CC1; dPen = CC(C)(S)[C@@H](N)C(=O)O; X3 = O=C(OCCSSCc1cccc(Cl)c1)*; S(3-Methylbutyl) = CC(C)CCS*; X4 = c1ccc(-c2ccc(S*)cc2)cc1; dDab = NCC[C@@H](N)C(=O)O; dDap = NC[C@@H](N)C(=O)O; Dab = NCC[C@H](N)C(=O)O; X2 = CC(C)CCSSCCOC(=O)*; Dap = NC[C@H](N)C(=O)O; Mpa = O=C(O)CCS

Columns and labels:
Type in all cases: cell-based
[1] = test system: A. Baumanni (ATCC 19606); conditions: ATCC 19606
Experimental: (§1) Compounds were prepared according to scheme 2, 3, 4, 6, 7, or 8 above, preparing different sets of compounds with different substitution patterns. All polymyxin analogues prepared were tested for their anti-bacterial activity on relevant Gram-negative strains (Table B). Polymyxin B and PMBN were taken along as references. In addition, the toxicity on renal Proximal Tubular Epithelial Cells (PTECs) was evaluated.
(§2) 3rd Generation compounds were also subjected to testing for their anti-bacterial activity on relevant Gram-negative strains (Table C). Polymyxin B and PMBN were taken along as references. In addition, the toxicity on renal Proximal Tubular Epithelial Cells (PTECs) was evaluated, see Table C.

[2] = test system: E. Coli (ATCC 25922); conditions: ATCC 25922
Experimental: as §1, §2

[3] = test system: P. Aeruginosa (ATCC 27853); conditions: ATCC 27853
Experimental: as §1, §2

[4] = test system: K. Pneumoniae (ATCC 13883); conditions: ATCC 13883
Experimental: as §1, §2

[5] = test system: renal Proximal Tubular Epithelial Cells (PTECs); experiment: Toxicity on renal Proximal Tubular Epithelial Cells
Experimental: as §1, §2

| SMILES | MIC A. Baumanni (ATCC 19606) [1] [µg/mL] | MIC E. Coli (ATCC 25922) [2] [µg/mL] | MIC P. Aeruginosa (ATCC 27853) [3] [µg/mL] | MIC K. Pneumoniae (ATCC 13883) [4] [µg/mL] | PTEC Toxicity (relative to polymyxin B) [5] |
| --- | --- | --- | --- | --- | --- |
| CC(C)CCSSC[C@@H](N)C(=O)N[C@H](C(=O)NCC(=O)N[C@H]1CCNC(=O)[C@H]([C@@H](C)O)NC(=O)[C@H](CCN)NC(=O)[C@H](CCN)NC(=O)[C@H](CC(C)C)NC(=O)[C@@H](Cc2ccccc2)NC(=O)[C@H](CCN)NC1=O)[C@@H](C)O (H-[dC](S(3-Methylbutyl))TG[Dab][Dab][dF]L[Dab][Dab]T; lactam 4-C) | 0.5 (≈ 0.444 µM) | 2 (≈ 1.78 µM) | 4 (≈ 3.55 µM) | 0.5 (≈ 0.444 µM) | 26.8 |
| CC(C)CCSSC[C@@H](N)C(=O)N[C@H](C(=O)N[C@H](CN)C(=O)N[C@H]1CCNC(=O)[C@H]([C@@H](C)O)NC(=O)[C@H](CCN)NC(=O)[C@H](CCN)NC(=O)[C@H](CC(C)C)NC(=O)[C@@H](Cc2ccccc2)NC(=O)[C@H](CCN)NC1=O)[C@@H](C)O (H-[dC](S(3-Methylbutyl))T[dDap][Dab][Dab][dF]L[Dab][Dab]T; lactam 4-C) | 0.25 (≈ 0.217 µM) | 2 (≈ 1.73 µM) | 1 (≈ 0.866 µM) | 0.5 (≈ 0.433 µM) | 9.7 |
| CC(C)CCSSC[C@@H](N)C(=O)N[C@H](C(=O)N[C@H](CCN)C(=O)N[C@H]1CCNC(=O)[C@H]([C@@H](C)O)NC(=O)[C@H](CCN)NC(=O)[C@H](CCN)NC(=O)[C@H](CC(C)C)NC(=O)[C@@H](Cc2ccccc2)NC(=O)[C@H](CCN)NC1=O)[C@@H](C)O (H-[dC](S(3-Methylbutyl))T[dDab][Dab][Dab][dF]L[Dab][Dab]T; lactam 4-C) | 0.25 (≈ 0.214 µM) | 2 (≈ 1.71 µM) | 1 (≈ 0.856 µM) | 0.5 (≈ 0.428 µM) | 7.1 |
| CC(C)C[C@@H]1NC(=O)[C@@H](Cc2ccccc2)NC(=O)[C@H](CCN)NC(=O)[C@@H](NC(=O)[C@H](CCN)NC(=O)[C@@H](NC(=O)OCCSSCc2cccc(Cl)c2)[C@@H](C)O)CCNC(=O)[C@H]([C@@H](C)O)NC(=O)[C@H](CCN)NC(=O)[C@H](CCN)NC1=O (X3-T[Dab][Dab][Dab][dF]L[Dab][Dab]T; lactam 3-C) | – | 4 (≈ 3.27 µM) | 1 (≈ 0.817 µM) | 1 (≈ 0.817 µM) | 1.3 |
| CC(C)CCSSCCOC(=O)N[C@H](C(=O)N[C@H](CN)C(=O)N[C@H]1CCNC(=O)[C@H]([C@@H](C)O)NC(=O)[C@H](CCN)NC(=O)[C@H](CCN)NC(=O)[C@H](CC(C)C)NC(=O)[C@@H](Cc2ccccc2)NC(=O)[C@H](CCN)NC1=O)[C@@H](C)O (X2-T[dDap][Dab][Dab][dF]L[Dab][Dab]T; lactam 3-C) | – | 4 (≈ 3.46 µM) | 2 (≈ 1.73 µM) | 2 (≈ 1.73 µM) | 2.9 |
| CC(C)CCSSC[C@@H](N)C(=O)N[C@H](C(=O)N[C@@H](CN)C(=O)N[C@H]1CCNC(=O)[C@H]([C@@H](C)O)NC(=O)[C@H](CCN)NC(=O)[C@H](CCN)NC(=O)[C@H](CC(C)C)NC(=O)[C@@H](Cc2ccccc2)NC(=O)[C@H](CCN)NC1=O)[C@@H](C)O (H-[dC](S(3-Methylbutyl))T[Dap][Dab][Dab][dF]L[Dab][Dab]T; lactam 4-C) | 0.25 (≈ 0.217 µM) | 1 (≈ 0.866 µM) | 1 (≈ 0.866 µM) | 0.25 (≈ 0.217 µM) | 20.1 |
| CC(C)C[C@@H]1NC(=O)[C@@H](Cc2ccccc2)NC(=O)[C@H](CCN)NC(=O)[C@@H](NC(=O)[C@H](CCN)NC(=O)[C@@H](NC(=O)CCSSc2ccc(-c3ccccc3)cc2)[C@@H](C)O)CCNC(=O)[C@H]([C@@H](C)O)NC(=O)[C@H](CCN)NC(=O)[C@H](CCN)NC1=O ([Mpa](X4)T[Dab][Dab][Dab][dF]L[Dab][Dab]T; lactam 4-C) | – | 8 (≈ 6.47 µM) | 4 (≈ 3.24 µM) | 2 (≈ 1.62 µM) | – |
| CC(C)C[C@@H]1NC(=O)[C@@H](Cc2ccccc2)NC(=O)[C@H](CCN)NC(=O)[C@@H](NC(=O)[C@H](CCN)NC(=O)[C@@H](NC(=O)CCSSCCC2CCCCC2)[C@@H](C)O)CCNC(=O)[C@H]([C@@H](C)O)NC(=O)[C@H](CCN)NC(=O)[C@H](CCN)NC1=O ([Mpa](S(2-cyclohexylethyl))T[Dab][Dab][Dab][dF]L[Dab][Dab]T; lactam 4-C) | – | 4 (≈ 3.35 µM) | 2 (≈ 1.68 µM) | 2 (≈ 1.68 µM) | – |
| CC(C)C[C@@H]1NC(=O)[C@@H](Cc2ccccc2)NC(=O)[C@H](CCN)NC(=O)[C@@H](NC(=O)[C@H](CN)NC(=O)[C@@H](NC(=O)OCCSSCc2cccc(Cl)c2)[C@@H](C)O)CCNC(=O)[C@H]([C@@H](C)O)NC(=O)[C@H](CCN)NC(=O)[C@H](CCN)NC1=O (X3-T[Dap][Dab][Dab][dF]L[Dab][Dab]T; lactam 3-C) | – | 8 (≈ 6.61 µM) | 4 (≈ 3.31 µM) | 4 (≈ 3.31 µM) | 0.8 |
| CC(C)C[C@@H]1NC(=O)[C@@H](Cc2ccccc2)NC(=O)[C@H](CCN)NC(=O)[C@@H](NC(=O)[C@H](CCN)NC(=O)[C@@H](NC(=O)[C@H](N)CSSCCC2CCCCC2)[C@@H](C)O)CCNC(=O)[C@H]([C@@H](C)O)NC(=O)[C@H](CCN)NC(=O)[C@H](CCN)NC1=O [drawing 128] (H-[dC](S(2-cyclohexylethyl))T[Dab][Dab][Dab][dF]L[Dab][Dab]T; lactam 4-C) | 0.5 (≈ 0.414 µM) | 1 (≈ 0.827 µM) | 2 (≈ 1.65 µM) | – | 1.2 |
| CC(C)CCSSC(C)(C)[C@@H](N)C(=O)N[C@H](C(=O)N[C@@H](CCN)C(=O)N[C@H]1CCNC(=O)[C@H]([C@@H](C)O)NC(=O)[C@H](CCN)NC(=O)[C@H](CCN)NC(=O)[C@H](CC(C)C)NC(=O)[C@@H](CC(C)C)NC(=O)[C@H](CCN)NC1=O)[C@@H](C)O (H-[dPen](S(3-Methylbutyl))T[Dab][Dab][Dab][dL]L[Dab][Dab]T; lactam 4-C) | 4 (≈ 3.44 µM) | 2 (≈ 1.72 µM) | 2 (≈ 1.72 µM) | 2 (≈ 1.72 µM) | – |
| CC(C)CCSSCCOC(=O)N[C@H](C(=O)N[C@@H](CCN)C(=O)N[C@H]1CCNC(=O)[C@H]([C@@H](C)O)NC(=O)[C@H](CCN)NC(=O)[C@H](CCN)NC(=O)[C@H](CC(C)C)NC(=O)[C@@H](Cc2ccccc2)NC(=O)[C@H](CCN)NC1=O)[C@@H](C)O (X2-T[Dab][Dab][Dab][dF]L[Dab][Dab]T; lactam 3-C) | – | 8 (≈ 6.84 µM) | 2 (≈ 1.71 µM) | 8 (≈ 6.84 µM) | 0.9 |
| CC(C)CCSSC(C)(C)[C@@H](N)C(=O)N[C@H](C(=O)N[C@@H](CN)C(=O)N[C@H]1CCNC(=O)[C@H]([C@@H](C)O)NC(=O)[C@H](CCN)NC(=O)[C@H](CCN)NC(=O)[C@H](CC(C)C)NC(=O)[C@@H](Cc2ccccc2)NC(=O)[C@H](CCN)NC1=O)[C@@H](C)O (H-[dPen](S(3-Methylbutyl))T[Dap][Dab][Dab][dF]L[Dab][Dab]T; lactam 4-C) | 1 (≈ 0.846 µM) | 2 (≈ 1.69 µM) | 2 (≈ 1.69 µM) | 1 (≈ 0.846 µM) | – |
| CC(C)C[C@@H]1NC(=O)[C@@H](Cc2ccccc2)NC(=O)[C@H](CCN)NC(=O)[C@@H](NC(=O)[C@H](CCN)NC(=O)[C@@H](NC(=O)CCSSc2ccc(Oc3ccccc3)cc2)[C@@H](C)O)CCNC(=O)[C@H]([C@@H](C)O)NC(=O)[C@H](CCN)NC(=O)[C@H](CCN)NC1=O ([Mpa](Phenylthio(4-OPh))T[Dab][Dab][Dab][dF]L[Dab][Dab]T; lactam 4-C) | – | 8 (≈ 6.39 µM) | 2 (≈ 1.6 µM) | 2 (≈ 1.6 µM) | – |
| CC(C)CCSSCCOC(=O)N[C@H](C(=O)N[C@H](CO)C(=O)N[C@H]1CCNC(=O)[C@H]([C@@H](C)O)NC(=O)[C@H](CCN)NC(=O)[C@H](CCN)NC(=O)[C@H](CC(C)C)NC(=O)[C@@H](Cc2ccccc2)NC(=O)[C@H](CCN)NC1=O)[C@@H](C)O (X2-T[dS][Dab][Dab][dF]L[Dab][Dab]T; lactam 3-C) | – | 4 (≈ 3.46 µM) | 4 (≈ 3.46 µM) | 2 (≈ 1.73 µM) | – |
| CC(C)CCSSC(C)(C)[C@@H](N)C(=O)N[C@H](C(=O)N[C@@H](CN)C(=O)N[C@H]1CCNC(=O)[C@H]([C@@H](C)O)NC(=O)[C@H](CCN)NC(=O)[C@H](CCN)NC(=O)[C@H](CC(C)C)NC(=O)[C@@H](CC(C)C)NC(=O)[C@H](CCN)NC1=O)[C@@H](C)O (H-[dPen](S(3-Methylbutyl))T[Dap][Dab][Dab][dL]L[Dab][Dab]T; lactam 4-C) | 2 (≈ 1.74 µM) | 2 (≈ 1.74 µM) | 2 (≈ 1.74 µM) | 1 (≈ 0.871 µM) | – |
| CC(C)CCSSC(C)(C)[C@@H](N)C(=O)N[C@H](C(=O)N[C@@H](CCN)C(=O)N[C@H]1CCNC(=O)[C@H]([C@@H](C)O)NC(=O)[C@H](CCN)NC(=O)[C@H](CCN)NC(=O)[C@H](CC(C)C)NC(=O)[C@@H](Cc2ccccc2)NC(=O)[C@H](CCN)NC1=O)[C@@H](C)O (H-[dPen](S(3-Methylbutyl))T[Dab][Dab][Dab][dF]L[Dab][Dab]T; lactam 4-C) | 4 (≈ 3.34 µM) | 2 (≈ 1.67 µM) | 2 (≈ 1.67 µM) | 2 (≈ 1.67 µM) | – |
